According to EP0837881B1, “CONJUGATES OF alpha-MSH WITH A FATTY ACID, PREPARATION METHOD THEREFOR, AND USE THEREOF AS A DRUG” (INSTITUT EUROPEEN DE BIOLOGIE CELLULAIRE, priority 1995, dated 2004):
Where “and” joins values, the source holds several entries; their conditions need not be identical. Identical values can stand only once. Numbered stars: 1 amine (or outer) side, 2 acyl side, 3 side chain; on linkers, the order of the positions; unused ones are H or OH. Square brackets hold non-standard residues; d marks the D form. Peptide text beside a SMILES is read from it. Adipoyl = O=C(CCCCC(=O)[*:2])[*:1]; d(hPhe) = N[C@H](CCc1ccccc1)C(=O)O; hLeu = CC(C)CC[C@H](N)C(=O)O

Legend:
souris = assay: Comparative DNFB contact hypersensitivity test, conjugate versus its peptide alone (Example 9); format: in vivo
Excerpt: La méthode utilisée est celle décrite précédemment dans l'exemple N° 4, hypersensibilité de contact induite chez la souris par la D N F B. • Produits étudiés Lot I : [formula] - Conjugué 1 représenté par le composé P3. Lot II : Me.Nle - Glu - His - D-homo-Phé - Arg - Trp - Gly - NH2 Lot T : Témoin = Acide trans-10-hydroxy-2-décénoïque.
Solvant : le propylène glycol précédemment employé comme témoin dans l'exemple 6.
Une mesure de l'activité du témoin sera effectuée pour chaque expérimentation. - Expérimentation et posologie
Témoin: 10 ng d' acide trans-10-hydroxy-2-décénoïque par souris et par jour.
Au cinquième jour, trente minutes après la dernière application toutes les souris sont sensibilisées avec 25 µl de D N F B (2.4-dinitro-1-fluorobenzène (FLUKA CHEMIKA PURUM à 97 % lot N° 33820890)) à 2 % dans un mélange 4 pour 1 d'acétone (SDS réf. 05510) et de trioléine (FLUKA) appliqué par voie topique sur la région dorsale de peau rasée. Au sixième jour, on procède à une nouvelle sensibilisation par application de D N F B. Au onzième jour, l'épaisseur des oreilles des souris, est mesurée à l'aide d'un micromètre (ROCH 0 à 25 mm au 1/100 mm) afin d'obtenir des valeurs de base, puis les oreilles sont stimulées par application topique de 20 µl de D N F B à 0,8 %. Au douzième jour, l'épaisseur des oreilles est à nouveau mesurée. On établit la valeur moyenne de l'épaississement des oreilles pour les souris des lots qui ont reçu les produits à étudier, ainsi que pour les souris du lot témoin.Le pourcentage de suppression éventuelle sera exprimé par la même équation que dans l'exemple 6.

PGE2 = assay: Inhibition of PGE2 production by IL1-stimulated MRC5 fibroblasts, RIA (Example 7); format: cell-based, humaine
Excerpt: Mise en évidence de l'effet inhibiteur des conjugués 1 et 5 (composés P1 et P2) sur la production par des fibroblastes stimulés par l'IL 1, d'un métabolite de l'acide arachidonique, la PGE2.
Nous avons choisi d'utiliser la souche ATCC MRC5 entretenue au laboratoire de façon continue et déjà testée par Cannon et al. (J. Immunol., 1986). Après un repiquage, les fibroblastes sont cultivés dans des micropuits (plaque de 24 puits de 2 cm^2, Falcon). L'innoculum est de 30 000 cellules par puits; le milieu nutritif utilisé est composé de RPMI 1640 (90 %) et de sérum de veau foetal décomplémenté (SVF, 10 %). Le milieu est changé tous les deux jours jusqu'à confluence des cellules.
Les couches monocellulaires ainsi obtenues sont lavées puis préincubées pendant 24 heures dans du milieu frais ne contenant que 1 % de SVF. […] Après 20 minutes d'incubation en présence de ces composés, l'ILI recombinante humaine (Tebu, France) à la concentration de 5, 2,5 ou 0,5 ng/ml de milieu est mise en contact avec des cellules pendant 18 heures. A la fin de cette incubation les surnageants sont prélevés et congelés à - 80 ° C jusqu'à l'analyse. Les couches monocellulaires sont fixées au méthanol.
Le dosage RIA est effectué selon la méthode décrite par Dray et al. (Europ. J. Invest. 1975). 3 séries d'expériences en duplicate ont été réalisées pour chaque concentration de produit étudié et pour les contrôles. Les résultats sont exprimés en pg/µg d'ADN. L'effet inhibiteur est exprimé en pourcentage par rapport aux contrôles.
Afin d'éviter toute erreur possible due au comptage en microscopie optique, l'ADN a été dosé par méthode fluorimétrique selon le protocole décrit par Brunk et al. (Analytical Biochem., 1979).

[1] = system: souris femelles C57 BL/6JICO; assay: Contact hypersensitivity test to dinitrofluorobenzene (DNFB), anti-allergic activity, topical application (Example 6); format: in vivo; conditions: for % Augment. O. Gauche / % Augment. O. Droite: increase of ear thickness; for % Augment. O. Gauche / % Suppress. O. Gauche: left ear; for % Augment. O. Droite / % Suppress. O. Droite: right ear; for % Suppress. O. Gauche / % Suppress. O. Droite: suppression versus control lot
Excerpt: Des souris femelles C57 BL/6JICO, âgées de 5 semaines sont réparties en dix lots de dix animaux (cinq par cage), avec libre accès à l'eau et à la nourriture, soumises à une photopériode de douze heures de lumière par vingt-quatre heures.
Les animaux des lots 1 à 6 reçoivent quotidiennement et par application topique sur la peau rasée du dos, les produits à étudier (conjugués 1 et 5 représentés par les composés P1 et P2 préparés selon les exemples 1 et 2), mis en solution dans du propylène glycol, sous un volume constant de 50 µl et cela pendant cinq jours consécutifs.
• Composé P1 - Lots 1, 2 et 3 - 2,5 µg, 0,5 µg et 0,1 µg /souris/jour respectivement. • Composé P2 - Lots 4, 5 et 6 - 2,5 µg, 0,5 µg et 0.1 µg /souris/jour respectivement.
Les animaux du lot 10 servent de témoins (ils reçoivent seulement, 50 µl de propylène glycol par application topique pendant cinq jours).
Au cinquième jour, trente minutes après la dernière application toutes les souris sont sensibilisées avec 25 µl de D N F B (2,4-dinitro-1-fluorobenzène (FLUKA CHEMIKA PURUM à 97 % lot n° 33820890)) à 2 % dans un mélange 4 pour 1 d'acétone (SDS réf 0510) et de trioléine (FLUKA) appliqué par voie topique sur la région dorsale de peau rasée.
Au sixième jour, on procède à une nouvelle sensibilisation par application de D N F B.
Au onzième jour, l'épaisseur des oreilles des souris, est mesurée à l'aide d'un micromètre (ROCH 0 à 25 mm au 1/100 mm) afin d'obtenir des valeurs de base, puis les oreilles sont stimulées par application topique de 20 µl de DNFB à 0,8 %.
Au douzième jour, l'épaisseur des oreilles est à nouveau mesurée. On établit la valeur moyenne de l'épaississement des oreilles pour les souris des lots qui ont reçu les produits à étudier, ainsi que pour les souris du lot témoin.
Le pourcentage de suppression éventuelle sera exprimé par le calcul suivant : (T-E)/(T)x100 [formula] avec T pour le pourcentage d'augmentation de l'épaisseur moyenne des oreilles du lot témoin et E pour celui des lots qui ont reçu les produits à étudier.

[2] = 0,1 µg/souris/jour topical for 5 days in propylene glycol
[3] = 0,1 µg/souris/jour topical for 5 days
[4] = 0,5 µg/souris/jour topical for 5 days in propylene glycol
[5] = 0,5 µg/souris/jour topical for 5 days
[6] = 2,5 µg/souris/jour topical for 5 days in propylene glycol
[7] = 2,5 µg/souris/jour topical for 5 days

O=C(O)/C=C/CCCCCCCO [Lot T, Acide trans-10-hydroxy-2-décénoïque]
% Augment. O. Gauche (souris; 0,01 µg/souris/jour (10 ng) topical in propylene glycol, control substance, one measurement per experiment, left ear): 55,80% and 57,10% | % Augment. O. Droite (souris; 0,01 µg/souris/jour (10 ng) topical in propylene glycol, control substance, one measurement per experiment, right ear): 56,00% and 57,50% | effet suppressif de l'hypersensibilité cutanée (souris; in solution in propylene glycol, 10 ng per mouse per day): pas d'effet suppressif

CC(C)CC[C@H](N)C(=O)N[C@@H](CCC(=O)O)C(=O)N[C@@H](Cc1c[nH]cn1)C(=O)N[C@H](CCc1ccccc1)C(=O)N[C@@H](CCCNC(=N)N)C(=O)N[C@@H](Cc1c[nH]c2ccccc12)C(=O)NCC(N)=O [Lot II, Me.Nle - Glu - His - D-homo-Phé - Arg - Trp - Gly - NH2] (H-[hLeu]EH[d(hPhe)]RWG-NH2)
suppression de l'hypersensibilité cutanée (souris; 0,1 µg/souris/jour): 47% | suppression de l'hypersensibilité cutanée (souris; 0,5 µg/souris/jour): ~60% | suppression de l'hypersensibilité cutanée (souris; 2,5 µg/souris/jour): ~69%

CC(C)CC[C@H](NC(=O)CCCCC(=O)O)C(=O)N[C@@H](CCC(=O)O)C(=O)N[C@@H](Cc1c[nH]cn1)C(=O)N[C@H](CCc1ccccc1)C(=O)N[C@@H](CCCNC(=N)N)C(=O)N[C@@H](Cc1c[nH]c2ccccc12)C(=O)NCC(N)=O [Conjugué 1, Adipoyl - Me.Nle - Glu - His - D-homo-Phé - Arg - Trp - Gly - NH2] (Adipoyl-[hLeu]EH[d(hPhe)]RWG-NH2)
% inhib. (PGE2; IL1 0,5 ng, conjugate 10^-4 M): 60% | PGE2 (PGE2; IL1 0,5 ng, conjugate 10^-4 M): 113 ± 25 pg/mg d'ADN | % inhib. (PGE2; IL1 0,5 ng, conjugate 10^-5 M): 38% | PGE2 (PGE2; IL1 0,5 ng, conjugate 10^-5 M): 176 ± 37 pg/mg d'ADN | % inhib. (PGE2; IL1 0,5 ng, conjugate 10^-6 M): 19% | PGE2 (PGE2; IL1 0,5 ng, conjugate 10^-6 M): 231 ± 55 pg/mg d'ADN | % inhib. (PGE2; IL1 0,5 ng, conjugate 10^-7 M): 13% | PGE2 (PGE2; IL1 0,5 ng, conjugate 10^-7 M): 249 ± 60 pg/mg d'ADN | % inhib. (PGE2; IL1 0,5 ng, conjugate 10^-8 M): 10% | PGE2 (PGE2; IL1 0,5 ng, conjugate 10^-8 M): 258 ± 35 pg/mg d'ADN | PGE2 (PGE2; IL1 0,5 ng, conjugate 10^-9 M): 364 ± 56 pg/mg d'ADN | % inhib. (PGE2; IL1 2,5 ng, conjugate 10^-4 M): 53% | PGE2 (PGE2; IL1 2,5 ng, conjugate 10^-4 M): 179 ± 50 pg/mg d'ADN | % inhib. (PGE2; IL1 2,5 ng, conjugate 10^-5 M): 40% | PGE2 (PGE2; IL1 2,5 ng, conjugate 10^-5 M): 232 ± 45 pg/mg d'ADN | % inhib. (PGE2; IL1 2,5 ng, conjugate 10^-6 M): 24% | PGE2 (PGE2; IL1 2,5 ng, conjugate 10^-6 M): 292 ± 68 pg/mg d'ADN | % inhib. (PGE2; IL1 2,5 ng, conjugate 10^-7 M): 6% | PGE2 (PGE2; IL1 2,5 ng, conjugate 10^-7 M): 364 ± 68 pg/mg d'ADN | % inhib. (PGE2; IL1 2,5 ng, conjugate 10^-8 M): 13% | PGE2 (PGE2; IL1 2,5 ng, conjugate 10^-8 M): 335 ± 50 pg/mg d'ADN | % inhib. (PGE2; IL1 2,5 ng, conjugate 10^-9 M): 17% | PGE2 (PGE2; IL1 2,5 ng, conjugate 10^-9 M): 320 ± 43 pg/mg d'ADN | action inhibitrice (PGE2; Table 2, dose-effect relation, independent of IL1 concentration): bonne action inhibitrice | action à partir de 10^-7 M (PGE2; conjugate 10^-7 M and lower, at both IL1 concentrations (2,5 and 0,5 ng)): pas d'action | pouvoir inhibiteur de l'action de l'IL1 et de la PGE2 (PGE2; summary of Tables 2 and 3): possèdent un pouvoir inhibiteur | % Augment. O. Gauche [1, 2]: 21,50% | % Augment. O. Droite [1, 2]: 22,00% | % Suppress. O. Gauche [1, 3]: 62,93% | % Suppress. O. Droite [1, 3]: 62,39% | % Augment. O. Gauche [1, 4]: 19,00% | % Augment. O. Droite [1, 4]: 19,50% | % Suppress. O. Gauche [1, 5]: 67,24% | % Suppress. O. Droite [1, 5]: 66,66% | % Augment. O. Gauche [1, 6]: 17,50% | % Augment. O. Droite [1, 6]: 17,80% | % Suppress. O. Gauche [1, 7]: 69,80% | % Suppress. O. Droite [1, 7]: 69,57% | suppression de la réaction d'hypersensibilité cutanée induite par administration de D N F. B ([1]; matches the 2,5 µg/souris/jour lots of Table 1): ~69%
